pKi: −log10 of the molar value.
Columns and labels:
Type in all cases: biochemical
[1] = target: T1, LsGH10A (Trametes sp., UniProt Z9JQD7XB80); assay: continuous fluorogenic inhibition kinetics (4-methylumbelliferyl glycoside); settings: non-covalent; no covalent inhibition discernible after 1 h; 50 mM NaOAc pH 4.0 final; inhibition assay, printed only as affinity
T1 construct: native signal peptide removed (alpha-factor secretion signal), C-terminal 6xHis, codon-optimised, Pichia pastoris X-33; later-eluting Superdex 200 peak

[2] = target: T2, LsGH5_5A (Trametes sp., UniProt Z9YXY2URI3); assay: continuous fluorogenic inhibition kinetics, 4MU-GG substrate; settings: covalent, time-dependent; up to 50 uM inhibitor; 0.4 mM substrate stock mixed 1:1; NaOAc pH 4.0
T2 construct: native signal peptide removed (alpha-factor secretion signal), C-terminal 6xHis (intact), codon-optimised, Pichia pastoris X-33
T2 sequence (Z9YXY2URI3 1-398): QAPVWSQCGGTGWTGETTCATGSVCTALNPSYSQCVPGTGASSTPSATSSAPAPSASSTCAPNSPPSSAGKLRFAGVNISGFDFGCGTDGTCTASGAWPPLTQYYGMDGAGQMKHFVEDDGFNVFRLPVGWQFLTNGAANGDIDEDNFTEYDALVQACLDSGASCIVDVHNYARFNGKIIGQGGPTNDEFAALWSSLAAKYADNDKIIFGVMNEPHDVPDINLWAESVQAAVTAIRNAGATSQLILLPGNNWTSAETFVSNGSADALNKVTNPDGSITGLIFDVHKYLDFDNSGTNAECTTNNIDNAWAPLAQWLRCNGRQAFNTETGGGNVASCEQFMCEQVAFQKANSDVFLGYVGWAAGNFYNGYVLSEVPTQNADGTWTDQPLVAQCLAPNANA

[3] = target: T1, LsGH10A; assay: as above; settings: covalent, time-dependent; up to 50 uM inhibitor; 0.4 mM substrate stock mixed 1:1; NaOAc pH 4.0
[4] = target: T3, TlGH12A (Pilatotrama ljubarskyi, UniProt Z9OT85M9A7); assay: as above; settings: covalent, time-dependent; up to 50 uM inhibitor; 0.4 mM substrate stock mixed 1:1; NaOAc pH 4.0
T3 construct: native signal peptide removed (alpha-factor secretion signal), C-terminal 6xHis, codon-optimised, Pichia pastoris X-33
T3 sequence (Z9OT85M9A7 1-225): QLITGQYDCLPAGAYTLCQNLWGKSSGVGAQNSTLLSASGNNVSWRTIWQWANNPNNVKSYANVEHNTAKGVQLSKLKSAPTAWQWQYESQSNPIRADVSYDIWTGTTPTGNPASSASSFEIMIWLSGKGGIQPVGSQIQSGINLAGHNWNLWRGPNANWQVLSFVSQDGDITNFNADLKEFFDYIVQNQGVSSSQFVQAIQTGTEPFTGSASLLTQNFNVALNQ

| Compound | pKi [1] | ki/KI [2] | ki/KI [3] | ki/KI [4] |
| --- | --- | --- | --- | --- |
| O=C(CCCC[C@@H]1SC[C@@H]2NC(=O)N[C@@H]21)NCCCCCCCCN1[C@H]2[C@H](O)[C@@H](O)[C@H](O[C@@H]3OC[C@@H](O)[C@H](O)[C@H]3O)C[C@H]21 (stereo partly shown) [Biotin-ABP-Xyn] | 7.68 |  |  |  |
| OC[C@H]1[C@H]2O[C@H]2[C@H](O)[C@@H](O)[C@@H]1O[C@@H]1O[C@H](CO)[C@@H](O)[C@H](O)[C@H]1O [GGcyc] |  | clear time-dependent inhibition of LsGH5_5A, TlGH12A, and LsGH10A by GGcyc | clear time-dependent inhibition of LsGH5_5A, TlGH12A, and LsGH10A by GGcyc | clear time-dependent inhibition of LsGH5_5A, TlGH12A, and LsGH10A by GGcyc |
